Assay results as given in ChEMBL document CHEMBL1125575, “2-[(2-pyridylmethyl)sulfinyl]-1H-thieno[3,4-d]imidazoles. A novel class of gastric H+/K(+)-ATPase inhibitors” (J Med Chem, 1992).

Key:
Oryctolagus cuniculus = species on record: Oryctolagus cuniculus; assay: cells; format: functional, organism-based, Stomach
Description: In vitro inhibition of 14C amino-pyrine uptake was determined in isolated rabbit gastric glands after dbcAMP stimulation

Canis familiaris = species on record: Canis familiaris; assay: animal or person; details: Canis lupus familiaris, Stomach, intraduodenal, read-out: Inhibition
Rattus norvegicus = species on record: Rattus norvegicus; assay: animal or person; details: Stomach, iv, read-out: Inhibition
animal or person = details: Canis lupus familiaris, Stomach, iv, read-out: Inhibition

Structure (SMILES)	IC50 (Oryctolagus cuniculus; Stomach)	inhibition in vivo at 1 mg/kg (Canis familiaris)	inhibition in vivo at 0.5 mg/kg (Rattus norvegicus)	inhibition in vivo at 0.3 mg/kg (animal or person)	IC50 (Oryctolagus cuniculus)
[O-][S+](Cc1cc(Oc2cccc(C(F)(F)F)c2)ccn1)c1nc2cscc2[nH]1 (configuration not stated)	2.2 µM	66%	64%	–	–
Cc1cccnc1C[S+]([O-])c1nc2cscc2[nH]1 (configuration not stated)	25 µM	–	–	–	–
COc1c(OCc2cc(C(F)(F)F)cc(C(F)(F)F)c2)ccnc1C[S+]([O-])c1nc2cscc2[nH]1 (configuration not stated)	0.5 µM	–	65%	–	–
COCCOc1ccnc(C[S+]([O-])c2nc3cscc3[nH]2)c1Cl (configuration not stated)	–	–	63%	–	–
[O-][S+](Cc1ncccc1Cl)c1nc2cscc2[nH]1 (configuration not stated)	1 µM	–	–	–	–
[O-][S+](Cc1cc(OCc2ccc(F)cc2F)ccn1)c1nc2cscc2[nH]1 (configuration not stated)	1 µM	–	76%	–	–
COc1c(C)cnc(C[S+]([O-])c2nc3cscc3[nH]2)c1C (configuration not stated)	1000 µM	–	–	–	–
Cc1ccc(C[S+]([O-])c2nc3c(C)sc(C)c3[nH]2)nc1 (configuration not stated)	6 µM	–	58%	46%	–
COc1c(C)cnc(C[S+]([O-])c2nc3c(-c4ccccc4)scc3[nH]2)c1C (configuration not stated)	4.2 µM	39%	46%	–	–
COc1ccc(-c2scc3[nH]c([S+]([O-])Cc4ncc(C)c(OC)c4C)nc23)cc1 (configuration not stated)	3 µM	–	24%	–	–
Cc1sc(C)c2[nH]c([S+]([O-])Cc3cc(OCC(F)(F)C(F)(F)F)ccn3)nc12 (configuration not stated)	1 µM	–	–	–	–
[O-][S+](Cc1cc(OCc2ccccc2)ccn1)c1nc2cscc2[nH]1 (configuration not stated)	0.5 µM	–	–	–	–
COc1ccnc(C[S+]([O-])c2nc3c(C)sc(C)c3[nH]2)c1 (configuration not stated)	12 µM	–	–	66%	–
COc1c(OCc2ccc(C(F)(F)F)cc2)ccnc1C[S+]([O-])c1nc2cscc2[nH]1 (configuration not stated)	0.5 µM	91%	51%	–	–
CCOc1ccnc(C[S+]([O-])c2nc3cscc3[nH]2)c1Cl (configuration not stated)	2 µM	–	–	–	–
Cc1sc(C)c2[nH]c([S+]([O-])Cc3ccccn3)nc12 (configuration not stated)	15 µM	–	–	–	–
COC(=O)c1sc2[nH]c([S+]([O-])Cc3ccccn3)nc2c1C(=O)OC (configuration not stated)	1000 µM	–	–	–	–
[O-][S+](Cc1cc(Oc2ccc(Cl)cc2)ccn1)c1nc2cscc2[nH]1 (configuration not stated)	2 µM	–	66%	76%	–
COc1ccnc(C[S+]([O-])c2nc3ccsc3[nH]2)c1 (configuration not stated)	1000 µM	–	–	–	–
[O-][S+](Cc1cc(Oc2ccc(Cl)c(Cl)c2)ccn1)c1nc2cscc2[nH]1 (configuration not stated)	2.3 µM	–	49%	62%	–
[O-][S+](Cc1cc(OC(F)F)ccn1)c1nc2cscc2[nH]1 (configuration not stated)	–	–	–	–	1000 µM
Cc1cccc(C[S+]([O-])c2nc3cscc3[nH]2)n1 (configuration not stated)	300 µM	–	–	–	–
CCCOc1ccnc(C[S+]([O-])c2nc3cscc3[nH]2)c1Cl (configuration not stated)	3 µM	–	–	–	–
COC(=O)c1sc2[nH]c([S+]([O-])Cc3cc(OC)ccn3)nc2c1C(=O)OC (configuration not stated)	1000 µM	–	–	–	–
Cc1cnc(C[S+]([O-])c2nc3cscc3[nH]2)c(C)c1 (configuration not stated)	50 µM	–	–	91%	–

Structure (SMILES)	IC50 (Oryctolagus cuniculus; Stomach)	inhibition in vivo at 1 mg/kg (Canis familiaris)	inhibition in vivo at 0.5 mg/kg (Rattus norvegicus)	inhibition in vivo at 0.3 mg/kg (animal or person)	IC50 (Oryctolagus cuniculus)
[O-][S+](Cc1cc(OCC(F)(F)C(F)(F)F)ccn1)c1nc2cscc2[nH]1 (configuration not stated)	1 µM	–	81%	–	–
Cc1sc(C)c2[nH]c([S+]([O-])Cc3cc(OCC(F)(F)C(F)(F)C(F)(F)F)ccn3)nc12 (configuration not stated)	26 µM	–	–	–	–
[O-][S+](Cc1nccc(Oc2ccccc2)c1Cl)c1nc2cscc2[nH]1 (configuration not stated)	61 µM	–	0%	–	–
[O-][S+](Cc1ccc(Cl)cn1)c1nc2cscc2[nH]1 (configuration not stated)	1000 µM	–	26%	–	–
CCCCOc1ccnc(C[S+]([O-])c2nc3cscc3[nH]2)c1 (configuration not stated)	1 µM	–	81%	87%	–
[O-][S+](Cc1cc(OCc2cc(Cl)cc(Cl)c2)ccn1)c1nc2cscc2[nH]1 (configuration not stated)	1.1 µM	–	64%	–	–
[O-][S+](Cc1ncccc1F)c1nc2cscc2[nH]1 (configuration not stated)	1000 µM	–	–	–	–
[O-][S+](Cc1nccc(OCC(F)(F)F)c1Cl)c1nc2cscc2[nH]1 (configuration not stated)	1000 µM	–	–	–	–
[O-][S+](Cc1cc(OCc2cc(F)cc(F)c2)ccn1)c1nc2cscc2[nH]1 (configuration not stated)	0.7 µM	96%	70%	–	–
[O-][S+](Cc1cc(OCc2ccc(Cl)cc2)ccn1)c1nc2cscc2[nH]1 (configuration not stated)	0.4 µM	–	78%	–	–
[O-][S+](Cc1nccc(OCC(F)(F)C(F)(F)F)c1Cl)c1nc2cscc2[nH]1 (configuration not stated)	10 µM	–	–	–	–
[O-][S+](Cc1cc(Oc2ccc(F)cc2F)ccn1)c1nc2cscc2[nH]1 (configuration not stated)	0.3 µM	–	56%	74%	–
CC(C)Oc1ccnc(C[S+]([O-])c2nc3cscc3[nH]2)c1Cl (configuration not stated)	1 µM	–	80%	87%	–
[O-][S+](Cc1ncccc1OCC(F)(F)F)c1nc2cscc2[nH]1 (configuration not stated)	120 µM	–	23%	–	–
[O-][S+](Cc1ccccn1)c1nc2c(-c3ccccc3)scc2[nH]1 (configuration not stated)	31 µM	–	–	–	–
[O-][S+](Cc1cc(OCc2cc(C(F)(F)F)cc(C(F)(F)F)c2)ccn1)c1nc2cscc2[nH]1 (configuration not stated)	1.1 µM	87%	43%	–	–
COc1ccc(C[S+]([O-])c2nc3cscc3[nH]2)nc1 (configuration not stated)	1000 µM	–	38%	–	–
CC(=O)c1scc2[nH]c([S+]([O-])Cc3cc(OCC(F)(F)F)ccn3)nc12 (configuration not stated)	32 µM	–	–	–	–
[O-][S+](Cc1cc(OCC(F)(F)C(F)(F)F)c(Cl)cn1)c1nc2cscc2[nH]1 (configuration not stated)	–	–	38%	–	–
COc1ccnc(C[S+]([O-])c2nc3cscc3[nH]2)c1OC (configuration not stated)	3.6 µM	–	54%	82%	–
COc1ccnc(C[S+]([O-])c2nc3cscc3[nH]2)c1C (configuration not stated)	1000 µM	–	–	–	–
COc1c(C)cnc(C[S+]([O-])c2nc3cscc3[nH]2)c1Cl (configuration not stated)	–	–	43%	52%	–
Cc1sc(C)c2[nH]c([S+]([O-])Cc3nccc(OC(C)C)c3Cl)nc12 (configuration not stated)	2.5 µM	–	32%	–	–
[O-][S+](Cc1ncccc1OC(F)F)c1nc2cscc2[nH]1 (configuration not stated)	1000 µM	–	–	–	–
